Assay results from patent US20240116921A1, “LACTAM (HETERO)[…] DERIVATIVES AS INHIBITORS OF ERBB2” (EnLiven Therapeutics, Inc., priority 2020, published 2024).

Tests used:
[1] = molecular target: T1, phosphorylated EGFR (pEGFR) (Homo sapiens, UniProt P00533); assay: Detection of phosphorylated EGFR (pEGFR) in EGF-stimulated A431 cells; format: cell-based; conditions: A431 cells (10% FBS), 4 hours incubation, EGF 30 ng/mL 10 minutes, AlphaLISA
T1 construct: performed to measure phosphorylated EGFR levels using A431 cells (10% FBS); endogenous in cells; host or cells: A431
Method in brief: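 A431 cells in 10% FBS were preincubated with compound for 4 h at 37 °C, then stimulated with EGF (30 ng/mL final) for 10 min. pEGFR in lysates was read by AlphaLISA. % inhibition was calculated against DMSO and staurosporine-treated controls, and IC50 came from a four-parameter curve fit.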

[2] = molecular target: T2, phosphorylated ERBB2 (pERBB2) (Homo sapiens, UniProt P04626); assay: Detection of phosphorylated ERBB2 (pERBB2) by ELISA in BT-474 cells; format: cell-based; conditions: four hours incubation
T2 construct: endogenous in cells; host or cells: BT-474
Method in brief: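 BT-474 cells (2.0×10^4/well) treated 4 h at 37 °C, 5% CO2 with compounds in four-fold dilutions from 10 µM to 0.01 nM. Lysate pERBB2 measured by ELISA with TMB read at 450 nm; % relative activity scaled between no-cell wells and 0.1% DMSO-treated cells.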

[3] = molecular target: Ba/F3 ERBB2 A775_G776insYVMA (Homo sapiens, UniProt P04626, DUP772-775, cells depend on it); assay: Cell viability assay, Ba/F3 ERBB2 A775_G776insYVMA; format: cell-based, mouse; conditions: Ba/F3 ERBB2 YVMA cells, cell viability, 72 hours, CellTiter Glo; Table B5; read-out: Ba/F3 ERBB2 YVMA, IC50
Method in brief: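 IL-3-independent Ba/F3 lines stably expressing the human ERBB2 insertion mutants were seeded at 3000 cells/well and exposed to compounds for 72 h at 37 °C, 5% CO2. Viability was read as ATP by CellTiter-Glo luminescence. Curves were fitted by sigmoidal nonlinear regression.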

T1 sequence (P00533 25-1210): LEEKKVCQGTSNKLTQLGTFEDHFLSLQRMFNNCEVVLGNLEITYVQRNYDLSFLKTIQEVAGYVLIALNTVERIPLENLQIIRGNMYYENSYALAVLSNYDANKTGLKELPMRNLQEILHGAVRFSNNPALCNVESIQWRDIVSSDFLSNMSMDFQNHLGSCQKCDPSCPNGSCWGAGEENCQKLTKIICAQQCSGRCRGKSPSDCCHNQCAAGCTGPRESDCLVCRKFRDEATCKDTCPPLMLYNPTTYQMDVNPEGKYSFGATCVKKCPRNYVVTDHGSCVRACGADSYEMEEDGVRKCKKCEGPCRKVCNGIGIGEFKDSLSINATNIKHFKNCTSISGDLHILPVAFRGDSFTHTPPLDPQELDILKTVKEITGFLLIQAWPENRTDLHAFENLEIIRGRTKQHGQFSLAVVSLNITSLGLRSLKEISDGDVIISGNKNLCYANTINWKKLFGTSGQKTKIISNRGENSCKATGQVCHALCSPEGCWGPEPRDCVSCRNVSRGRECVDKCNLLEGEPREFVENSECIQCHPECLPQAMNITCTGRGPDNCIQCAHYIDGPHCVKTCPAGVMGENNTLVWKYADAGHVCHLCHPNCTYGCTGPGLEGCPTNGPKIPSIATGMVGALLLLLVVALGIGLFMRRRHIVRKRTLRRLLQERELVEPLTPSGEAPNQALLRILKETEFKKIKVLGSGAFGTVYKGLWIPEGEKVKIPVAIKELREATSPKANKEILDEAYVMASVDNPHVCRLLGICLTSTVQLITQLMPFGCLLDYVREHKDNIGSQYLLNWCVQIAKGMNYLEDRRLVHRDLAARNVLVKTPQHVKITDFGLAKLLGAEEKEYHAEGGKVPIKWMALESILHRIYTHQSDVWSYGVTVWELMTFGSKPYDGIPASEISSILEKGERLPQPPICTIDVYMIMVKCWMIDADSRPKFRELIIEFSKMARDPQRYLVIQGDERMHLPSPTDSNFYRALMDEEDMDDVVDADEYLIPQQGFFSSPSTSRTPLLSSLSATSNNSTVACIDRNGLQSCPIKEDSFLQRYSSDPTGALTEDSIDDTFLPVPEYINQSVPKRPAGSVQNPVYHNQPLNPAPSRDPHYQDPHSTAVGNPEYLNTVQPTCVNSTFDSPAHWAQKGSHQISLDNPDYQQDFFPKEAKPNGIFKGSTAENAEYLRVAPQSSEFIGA
T2 sequence (P04626 23-1255): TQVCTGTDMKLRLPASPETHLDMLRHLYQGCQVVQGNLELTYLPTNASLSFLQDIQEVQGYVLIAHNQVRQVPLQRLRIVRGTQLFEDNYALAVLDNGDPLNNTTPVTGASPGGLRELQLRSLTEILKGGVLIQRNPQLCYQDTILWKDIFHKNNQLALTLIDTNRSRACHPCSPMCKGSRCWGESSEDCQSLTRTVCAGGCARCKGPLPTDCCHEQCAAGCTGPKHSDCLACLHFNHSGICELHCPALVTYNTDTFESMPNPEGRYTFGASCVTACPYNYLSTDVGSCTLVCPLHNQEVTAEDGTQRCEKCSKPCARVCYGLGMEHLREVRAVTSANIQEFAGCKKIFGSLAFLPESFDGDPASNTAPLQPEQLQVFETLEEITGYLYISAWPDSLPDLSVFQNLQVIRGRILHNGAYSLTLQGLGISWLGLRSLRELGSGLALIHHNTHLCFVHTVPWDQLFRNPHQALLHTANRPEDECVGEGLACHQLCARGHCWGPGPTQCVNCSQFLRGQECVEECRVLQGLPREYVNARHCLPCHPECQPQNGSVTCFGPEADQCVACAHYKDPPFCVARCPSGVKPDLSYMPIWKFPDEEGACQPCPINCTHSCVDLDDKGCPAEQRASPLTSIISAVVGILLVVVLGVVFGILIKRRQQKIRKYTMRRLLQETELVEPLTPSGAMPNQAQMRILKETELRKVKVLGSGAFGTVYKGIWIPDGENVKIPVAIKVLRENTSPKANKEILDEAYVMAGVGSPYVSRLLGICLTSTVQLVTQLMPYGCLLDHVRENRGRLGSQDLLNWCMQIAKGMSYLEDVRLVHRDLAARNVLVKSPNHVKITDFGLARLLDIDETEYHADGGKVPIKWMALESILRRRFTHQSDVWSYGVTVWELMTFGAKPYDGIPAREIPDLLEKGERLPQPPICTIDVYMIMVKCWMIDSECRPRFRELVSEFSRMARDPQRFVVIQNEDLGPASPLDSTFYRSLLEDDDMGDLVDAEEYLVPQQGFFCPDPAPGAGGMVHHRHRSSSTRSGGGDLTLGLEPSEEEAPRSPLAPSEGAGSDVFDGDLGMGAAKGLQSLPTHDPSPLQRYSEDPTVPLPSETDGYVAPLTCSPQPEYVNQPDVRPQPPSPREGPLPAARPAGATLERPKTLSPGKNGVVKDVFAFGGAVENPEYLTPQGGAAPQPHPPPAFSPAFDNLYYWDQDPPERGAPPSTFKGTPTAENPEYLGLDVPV
Sequence of Ba/F3 ERBB2 A775_G776insYVMA (P04626 with tags, fused parts or gaps DUP772-775): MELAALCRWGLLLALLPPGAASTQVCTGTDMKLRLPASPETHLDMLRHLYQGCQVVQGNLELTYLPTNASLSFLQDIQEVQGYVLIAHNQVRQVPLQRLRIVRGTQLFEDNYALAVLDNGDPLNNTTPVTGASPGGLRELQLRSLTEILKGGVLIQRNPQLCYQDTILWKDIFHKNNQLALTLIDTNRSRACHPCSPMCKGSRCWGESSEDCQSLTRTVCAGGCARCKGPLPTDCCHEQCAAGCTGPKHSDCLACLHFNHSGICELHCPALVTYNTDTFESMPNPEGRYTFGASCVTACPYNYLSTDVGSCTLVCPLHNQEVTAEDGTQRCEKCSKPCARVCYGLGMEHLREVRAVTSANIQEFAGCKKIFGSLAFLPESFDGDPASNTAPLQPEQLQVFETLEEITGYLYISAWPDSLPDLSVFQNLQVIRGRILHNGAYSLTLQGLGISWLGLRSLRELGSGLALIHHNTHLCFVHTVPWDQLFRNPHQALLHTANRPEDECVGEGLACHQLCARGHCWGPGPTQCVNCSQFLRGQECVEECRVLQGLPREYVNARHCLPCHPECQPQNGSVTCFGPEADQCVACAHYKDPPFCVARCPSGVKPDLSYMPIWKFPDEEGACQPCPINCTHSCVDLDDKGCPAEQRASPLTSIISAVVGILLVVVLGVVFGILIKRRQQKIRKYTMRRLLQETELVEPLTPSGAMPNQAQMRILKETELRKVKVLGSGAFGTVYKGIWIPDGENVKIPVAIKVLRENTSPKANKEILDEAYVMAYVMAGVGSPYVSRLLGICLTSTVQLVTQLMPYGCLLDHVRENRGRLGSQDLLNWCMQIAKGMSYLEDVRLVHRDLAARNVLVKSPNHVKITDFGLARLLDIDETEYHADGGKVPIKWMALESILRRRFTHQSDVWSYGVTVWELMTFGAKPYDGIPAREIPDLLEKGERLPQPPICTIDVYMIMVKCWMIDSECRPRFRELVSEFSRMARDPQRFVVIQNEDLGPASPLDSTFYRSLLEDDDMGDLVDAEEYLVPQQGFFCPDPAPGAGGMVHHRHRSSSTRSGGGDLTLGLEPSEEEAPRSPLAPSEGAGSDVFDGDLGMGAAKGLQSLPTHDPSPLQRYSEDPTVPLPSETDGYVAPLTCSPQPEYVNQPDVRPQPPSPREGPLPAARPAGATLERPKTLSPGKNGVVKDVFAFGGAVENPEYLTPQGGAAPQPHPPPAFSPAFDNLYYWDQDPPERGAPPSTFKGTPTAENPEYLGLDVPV

Compound | IC50 [1] [nM] | IC50 [2] [nM] | GI50 [3] [nM]
Cc1cc(Nc2ncnc3cnc(N4CC/C(=C\CN(C)C)C4=O)cc23)ccc1Oc1cccnc1 [Compound 80, (3E)-3-[2-(dimethylamino)ethylidene]-1-(4-{[3-methyl-4-(pyridin-3-yloxy)phenyl]amino}pyrido[3,4-d]pyrimidin-6-yl)pyrrolidin-2-one] | 704 | 66.1 | 35.5
Cc1cc(Nc2ncnc3ccc(N4CC/C(=C\CN(C)C)C4=O)nc23)ccc1Oc1ccn2c(C)cnc2c1 [Compound 81, (E)-3-(2-(dimethylamino)ethylidene)-1-(4-((3-methyl-4-((3-methylimidazo[1,2-a]pyridin-7-yl)oxy)phenyl)amino)pyrido[3,2-d]pyrimidin-6-yl)pyrrolidin-2-one] | 1130 | 72.3 | 3.86
Cc1cc(Nc2ncnc3cnc(N4CC/C(=C\CN(C)C)C4=O)cc23)ccc1Oc1ccn2c(C)cnc2c1 [Compound 82, (3E)-3-[2-(dimethylamino)ethylidene]-1-(4-{[3-methyl-4-({3-methylimidazo[1,2-a]pyridin-7-yl}oxy)phenyl]amino}pyrido[3,4-d]pyrimidin-6-yl)pyrrolidin-2-one] | 3990 | 54.1 | 6.39
Cc1cc(Nc2ncnc3ccc(N4CC/C(=C/CN(C)C)C4=O)nc23)ccc1Oc1ccc2c(c1)ncn2C [Compound 83, (Z)-3-(2-(dimethylamino)ethylidene)-1-(4-((3-methyl-4-((1-methyl-1H-benzo[d]imidazol-5-yl)oxy)phenyl)amino)pyrido[3,2-d]pyrimidin-6-yl)pyrrolidin-2-one] | 6030 | 44.2 | 4.73
C=C1CCN(c2nc3c(Nc4ccc(Oc5ccc6c(c5)ncn6C)c(C)c4)ncnc3s2)C1=O [Compound 84, 1-[7-({3-methyl-4-[(1-methyl-1,3-benzodiazol-5-yl)oxy]phenyl}amino)-[1,3]thiazolo[5,4-d]pyrimidin-2-yl]-3-methylidenepyrrolidin-2-one] | > 10000 | 425 | 45
C=C1CCN(c2ccc3ncnc(Nc4ccc(Oc5ccc6c(c5)ncn6C)c(C)c4)c3n2)C1=O [Compound 87, 1-(4-((3-methyl-4-((1-methyl-1H-benzo[d]imidazol-5-yl)oxy)phenyl)amino)pyrido[3,2-d]pyrimidin-6-yl)-3-methylenepyrrolidin-2-one; formic acid] | 8160 | 87.2 | 23
Cc1cc(Nc2ncnc3ccc(N4CC/C(=C\[C@@H]5CCCN5C)C4=O)nc23)ccc1Oc1ccn2ncnc2c1 [Compound 89, (S,E)-1-(4-((4-([1,2,4]triazolo[1,5-a]pyridin-7-yloxy)-3-methylphenyl)amino)pyrido[3,2-d]pyrimidin-6-yl)-3-((1-methylpyrrolidin-2-yl)methylene)pyrrolidin-2-one] | 699 | 28.9 | 1.87
Cc1cc(Nc2ncnc3ccc(N4CC/C(=C\[C@H]5CCCN5C)C4=O)nc23)ccc1Oc1ccn2ncnc2c1 [Compound 90, (R,E)-1-(4-((4-([1,2,4]triazolo[1,5-a]pyridin-7-yloxy)-3-methylphenyl)amino)pyrido[3,2-d]pyrimidin-6-yl)-3-((1-methylpyrrolidin-2-yl)methylene)pyrrolidin-2-one] | 5770 | 17.1 | 10.8
CN(C)C/C=C1\CCN(c2ccc3ncnc(Nc4ccc(Oc5ccc6c(c5)ncn6C)c(F)c4)c3n2)C1=O [Compound 91, (3E)-3-[2-(dimethylamino)ethylidene]-1-[4-({3-fluoro-4-[(1-methyl-1,3-benzodiazol-5-yl)oxy]phenyl}amino)pyrido[3,2-d]pyrimidin-6-yl]pyrrolidin-2-one] | > 10000 | 18.9 | 2.08
